{
  "source": "patent US20220389019A1",
  "about": "“TrkB POSITIVE ALLOSTERIC MODULATORS” (Université de Strasbourg, priority 2019, published 2022)",
  "data": [
    {"system": "TrkB", "assay": "TrkB phosphorylation assay: potentiation of BDNF-induced TrkB phosphorylation in cortical neurons", "format": "cell-based", "settings": "potentation at a PAM concentration of 10 nM of 0.4 nM BDNF-induced TrkB phosphorylation in cortical neurons", "from_the_text": "It is meant by “positive allosteric modulator” (PAM), also known as allosteric enhancer or potentiator, a compound that induces an amplification of the effect of receptor's response to the primary ligand without directly activating the receptor. Within this invention, PAM TrkB activity is related to the potentation of BDNF effects on the functional activity of the TrkB receptor, measured in vitro or in vivo by mean of a specific TrkB receptor phosphorylation assay.\nIn Vitro Activity of LIT-TB Derivatives in a TrkB Phosphorylation Assay", "values": [
      {"smiles": "CN1CCN(c2ccc3ncc(CCC(=O)NC4CCN(Cc5ccccc5)CC4)n3c2)CC1", "note": "[LIT-TB013, N-(1-benzylpiperidin-4-yl)-3-(6-(4-methylpiperazin-1-yl)imidazo[1,2-a]pyridin-3-yl)propanamide]", "PAM TrkB activity": "+++ (+++: >35%)"},
      {"smiles": "CN1CCN(c2ccc3nnc(CCC(=O)NC4CCN(Cc5ccccc5F)CC4)n3n2)CC1", "note": "[LIT-TB022, N-{1-[(2-fluorophenyl)methyl]piperidin-4-yl}-3-[6-(4-methylpiperazin-1-yl)-[1,2,4]triazolo[4,3-b]pyridazin-3-yl]propanamide]", "PAM TrkB activity": "+++ (+++: >35%)"},
      {"smiles": "CN1CCN(c2ccc3nnc(CCC(=O)NC4CCN(CC5CCCCC5)CC4)n3n2)CC1", "note": "[LIT-TB031, N-[1-(cyclohexylmethyl)piperidin-4-yl]-3-[6-(4-methylpiperazin-1-yl)-[1,2,4]triazolo[4,3-b]pyridazin-3-yl]propanamide]", "PAM TrkB activity": "+++ (+++: >35%)"},
      {"smiles": "COc1ccc(CN2CCC(NC(=O)CCc3nnc4ccc(N5CCN(C)CC5)nn34)CC2)c(F)c1.Cl.Cl", "note": "[LIT-TB046, N-{1-[(2-fluoro-4-methoxyphenyl)methyl]piperidin-4-yl}-3-[6-(4-methylpiperazin-1-yl)-[1,2,4]triazolo[4,3-b]pyridazin-3-yl]propanamide dihydrochloride]", "PAM TrkB activity": "+ (+: <20%)"},
      {"smiles": "CN1CCN(c2ccc3nnc(CCC(=O)NC4CCN(Cc5ccc(Cl)c(Cl)c5)CC4)n3n2)CC1", "note": "[LIT-TB026, N-{1-[(3,4-dichlorophenyl)methyl]piperidin-4-yl}-3-[6-(4-methylpiperazin-1-yl)-[1,2,4]triazolo[4,3-b]pyridazin-3-yl]propanamide]", "PAM TrkB activity": "+ (+: <20%)"},
      {"smiles": "Cc1cc(F)ccc1CN1CCC(NC(=O)CCc2nnc3ccc(N4CCN(C)CC4)nn23)CC1", "note": "[LIT-TB044, N-{1-[(4-fluoro-2-methylphenyl)methyl]piperidin-4-yl}-3-[6-(4-methylpiperazin-1-yl)-[1,2,4]triazolo[4,3-b]pyridazin-3-yl]propanamide]", "PAM TrkB activity": "++ (++: 20-35%)"},
      {"smiles": "O=C(CCc1nnc2ccc(N3CCC(N4CCCCC4)CC3)nn12)NC1CCN(Cc2ccccc2)CC1", "note": "[LIT-TB003, 3-(6-([1,4′-bipiperidin]-1′-yl)-[1,2,4]triazolo[4,3-b]pyridazin-3-yl)-N-(1-benzylpiperidin-4-yl) propanamide]", "PAM TrkB activity": "++ (++: 20-35%)"},
      {"smiles": "CN1CCN(c2ccc3nnc(CCC(=O)NC4CCN(Cc5ccccc5)C(=O)C4)n3n2)CC1", "note": "(stereo not shown) [LIT-TB033, N-(1-benzyl-2-oxopiperidin-4-yl)-3-[6-(4-methylpiperazin-1-yl)-[1,2,4]triazolo[4,3-b]pyridazin-3-yl]propanamide]", "PAM TrkB activity": "+ (+: <20%)"},
      {"smiles": "CN1CCN(c2ccc3nnc(CCC(=O)N[C@H]4CCN(Cc5ccccc5)C[C@@H]4F)n3n2)CC1", "note": "[LIT-TB048, N-[(3S,4S)-1-benzyl-3-fluoropiperidin-4-yl]-3-[6-(4-methylpiperazin-1-yl)-[1,2,4]triazolo[4,3-b]pyridazin-3-yl]propanamide]", "PAM TrkB activity": "+++ (+++: >35%)"},
      {"smiles": "CN1CCN(c2ccc3nnc(CCC(=O)NC4CCN(Cc5cccc(Cl)c5)CC4)n3n2)CC1", "note": "[LIT-TB018, N-{1-[(3-chlorophenyl)methyl]piperidin-4-yl}-3-[6-(4-methylpiperazin-1-yl)-[1,2,4]triazolo[4,3-b]pyridazin-3-yl]propanamide]", "PAM TrkB activity": "+++ (+++: >35%)"},
      {"smiles": "COc1ccc(CN2CCC(NC(=O)CCc3nnc4ccc(N5CCN(C)CC5)nn34)CC2)c(C)c1.Cl.Cl", "note": "[LIT-TB045, N-{1-[(4-methoxy-2-methylphenyl)methyl]piperidin-4-yl}-3-[6-(4-methylpiperazin-1-yl)-[1,2,4]triazolo[4,3-b]pyridazin-3-yl]propanamide dihydrochloride]", "PAM TrkB activity": "+++ (+++: >35%)"},
      {"smiles": "COc1ccc(CN2CCC(NC(=O)CCc3nnc4ccc(N5CCN(C)CC5)nn34)CC2)cc1", "note": "[LIT-TB017, N-{1-[(4-methoxyphenyl)methyl]piperidin-4-yl}-3-[6-(4-methylpiperazin-1-yl)-[1,2,4]triazolo [4,3-b]pyridazin-3-yl]propanamide]", "PAM TrkB activity": "+++ (+++: >35%)"},
      {"smiles": "COc1ccc(CN2CC[C@H](NC(=O)CCc3nnc4ccc(N5CCN(C)CC5)nn34)[C@@H](F)C2)cc1", "note": "[LIT-TB052, N-[(3S,4S)-3-fluoro-1-[(4-methoxyphenyl)methyl]piperidin-4-yl]-3-[6-(4-methylpiperazin-1-yl)-[1,2,4]triazolo[4,3-b]pyridazin-3-yl]propanamide]", "PAM TrkB activity": "+++ (+++: >35%)"},
      {"smiles": "Cc1ccccc1CN1CCC(NC(=O)CCc2nnc3ccc(N4CCN(C)CC4)nn23)CC1", "note": "[LIT-TB024, N-{1-[(2-methylphenyl)methyl]piperidin-4-yl}-3-[6-(4-methylpiperazin-1-yl)-[1,2,4]triazolo[4,3-b]pyridazin-3-yl]propanamide]", "PAM TrkB activity": "+++ (+++: >35%)"},
      {"smiles": "CN1CCN(c2ccc3nnc(CCC(=O)NC4CCN(Cc5ccccc5Cl)CC4)n3n2)CC1", "note": "[LIT-TB019, N-{1-[(2-chlorophenyl)methyl]piperidin-4-yl}-3-[6-(4-methylpiperazin-1-yl)-[1,2,4]triazolo[4,3-b]pyridazin-3-yl]propanamide]", "PAM TrkB activity": "+++ (+++: >35%)"},
      {"smiles": "CN1CCN(c2ccc3ncc(CCC(=O)NC4CCN(Cc5ccccc5)CC4)n3n2)CC1", "note": "[LIT-TB014, N-(1-benzylpiperidin-4-yl)-3-(6-(4-methylpiperazin-1-yl)imidazo[1,2-b]pyridazin-3-yl)propanamide]", "PAM TrkB activity": "++ (++: 20-35%)"},
      {"smiles": "O=C(CCc1nnc2ccc(N3CCN(Cc4ccccc4)CC3)nn12)NC1CCN(Cc2ccccc2)CC1", "note": "[LIT-TB005]", "PAM TrkB activity": "+++ (+++: >35%)"},
      {"smiles": "CN1CCN(c2ccc3nnc(CCC(=O)NC4CCN(Cc5ccc(Cl)cc5)CC4)n3n2)CC1", "note": "[LIT-TB028, N-{1-[(4-chlorophenyl)methyl]piperidin-4-yl}-3-[6-(4-methylpiperazin-1-yl)-[1,2,4]triazolo[4,3-b]pyridazin-3-yl]propanamide]", "PAM TrkB activity": "+ (+: <20%)"},
      {"smiles": "CN1CCN(c2ccc3nnc(CCC(=O)NC4CCN(C(=O)c5ccccc5)CC4)n3n2)CC1.Cl", "note": "[LIT-TB027, N-(1-benzoylpiperidin-4-yl)-3-[6-(4-methylpiperazin-1-yl)-[1,2,4]triazolo[4,3-b]pyridazin-3-yl]propanamide hydrochloride]", "PAM TrkB activity": "+ (+: <20%)"},
      {"smiles": "CN1CCN(c2ccc3nnc(CCCNC4CCN(Cc5ccccc5)CC4)n3n2)CC1", "note": "[LIT-TB015, 1-benzyl-N-(3-(6-(4-methylpiperazin-1-yl)-[1,2,4]triazolo[4,3-b]pyridazin-3-yl)propyl)piperidin-4-amine]", "PAM TrkB activity": "+++ (+++: >35%)"},
      {"smiles": "CN1CCN(c2ccc3nnc(CCC(=O)NC4CCN(Cc5ccncc5)CC4)n3n2)CC1", "note": "[LIT-TB025, 3-[6-(4-methylpiperazin-1-yl)-[1,2,4]triazolo[4,3-b]pyridazin-3-yl]-N-[1-(pyridin-4-ylmethyl)piperidin-4-yl]propanamide]", "PAM TrkB activity": "+ (+: <20%)"},
      {"smiles": "CC(c1ccccc1)N1CCC(NC(=O)CCc2nnc3ccc(N4CCN(C)CC4)nn23)CC1", "note": "(stereo not shown) [LIT-TB023, 3-[6-(4-methylpiperazin-1-yl)-[1,2,4]triazolo[4,3-b]pyridazin-3-yl]-N-[1-(1-phenylethyl)piperidin-4-yl]propanamide]", "PAM TrkB activity": "+ (+: <20%)"},
      {"smiles": "CN1CCN(c2ccc3nnc(CCC(=O)N[C@@H]4CCN(Cc5ccccc5)C[C@H]4F)n3n2)CC1", "note": "[LIT-TB049, N-[(3R,4R)-1-benzyl-3-fluoropiperidin-4-yl]-3-[6-(4-methylpiperazin-1-yl)-[1,2,4]triazolo[4,3-b]pyridazin-3-yl]propanamide]", "PAM TrkB activity": "+++ (+++: >35%)"},
      {"smiles": "CN1CCC(NC(=O)CCc2nnc3ccc(N4CCN(C)CC4)nn23)CC1", "note": "[LIT-TB016, 3-[6-(4-methylpiperazin-1-yl)-[1,2,4]triazolo[4,3-b]pyridazin-3-yl]-N-(1-methyl-piperidin-4-yl)propanamide]", "PAM TrkB activity": "+++ (+++: >35%)"},
      {"smiles": "O=C(CCc1nnc2ccc(N3CCN(c4ncccn4)CC3)nn12)NC1CCN(Cc2ccccc2)CC1", "note": "[LIT-TB004, N-(1-benzylpiperidin-4-yl)-3-(6-(4-(pyrimidin-2-yl)piperazin-1-yl)-[1,2,4]triazolo[4,3-b]pyridazin-3-yl)propanamide]", "PAM TrkB activity": "+ (+: <20%)"},
      {"smiles": "CN1CCN(c2ccc3nnc(CCC(=O)NC4CCNCC4)n3n2)CC1", "note": "[LIT-TB021, 3-(6-(4-methylpiperazin-1-yl)-[1,2,4]triazolo[4,3-b]pyridazin-3-yl)-N-(piperidin-4-yl)propanamide]", "PAM TrkB activity": "+ (+: <20%)"},
      {"smiles": "CN1CCN(c2ccc3nnc(CCC(=O)NC4CCN(c5ccccc5)CC4)n3n2)CC1", "note": "[LIT-TB035, 3-[6-(4-methylpiperazin-1-yl)-[1,2,4]triazolo[4,3-b]pyridazin-3-yl]-N-(1-phenylpiperidin-4-yl)propanamide]", "PAM TrkB activity": "++ (++: 20-35%)"},
      {"smiles": "CN1CCN(c2ccc3nnc(CCC(=O)NC4CCN(Cc5ccccc5)CC4)n3c2)CC1", "note": "[LIT-TB006, N-(1-benzylpiperidin-4-yl)-3-(6-(4-methylpiperazin-1-yl)-[1,2,4]triazolo[4,3-a]pyridin-3-yl)propanamide]", "PAM TrkB activity": "+++ (+++: >35%)"},
      {"smiles": "Cc1[nH]cnc1CN1CCC(NC(=O)CCc2nnc3ccc(N4CCN(C)CC4)nn23)CC1", "note": "[LIT-TB032, N-{1-[(5-methyl-1H-imidazol-4-yl)methyl]piperidin-4-yl}-3-[6-(4-methylpiperazin-1-yl)-[1,2,4]triazolo [4,3-b]pyridazin-3-yl]propanamide]", "PAM TrkB activity": "+++ (+++: >35%)"},
      {"smiles": "CN1CCN(c2ccc3nnc(CCC(=O)NC4CCN(Cc5ccc(F)cc5F)CC4)n3n2)CC1", "note": "[LIT-TB040, N-{1-[(2,4-difluorophenyl)methyl]piperidin-4-yl}-3-[6-(4-methylpiperazin-1-yl)-[1,2,4]triazolo[4,3-b]pyridazin-3-yl]propanamide]", "PAM TrkB activity": "++ (++: 20-35%)"},
      {"smiles": "CN1CCN(c2ccc3nnc(CCC(=O)NC4CCC(Cc5ccccc5)CC4)n3n2)CC1", "note": "(stereo not shown) [LIT-TB034, N-(4-benzylcyclohexyl)-3-[6-(4-methylpiperazin-1-yl)-[1,2,4]triazolo[4,3-b]pyridazin-3-yl]propanamide]", "PAM TrkB activity": "+ (+: <20%)"}
    ]}
  ]
}
